# Experiment: In-vivo testing for antiobesic activity
# Settings: rats
# [1] = 10 mg/kg body weight daily intraperitoneally over 14 days
smiles,measurement,setting,value
"O=C(NN1CCCCC1)C1=NN(c2ccc(Cl)cc2Cl)C(c2ccc(Cl)cc2)C1 (stereo not drawn) [Example 1, N-piperidinyl-5-(4-chlorophenyl)-1-(2,4-dichlorophenyl)-4,5-dihydro-1H-pyrazole-3-carboxamide]",body weight (FIG. 1),[1],body weight is lowered
same,food intake (FIG. 2),[1],reduction of food intake
same,body weight effect after the treatment is ended (FIG. 1),after end of 14 days of 10 mg/kg daily intraperitoneally,also observed after the treatment is ended

# From patent publication US7524868B2, “Substituted pyrazoline compounds, their preparation and use as medicaments” (Laboratorios Del Dr. Esteve, S.A., priority 2004, dated 2009)
